Data taken from patent publication US20200399238A1, “THERAPEUTIC AURONES” (MIDDLE TENNESSEE STATE UNIVERSITY, priority 2016, published 2020).
Like-named read-outs stand apart in the source and are kept apart here.

Experiments:
[1] = system: Leishmania amazonensis promastigotes expressing beta-lactamase; assay: microbe, parasite or virus in culture; assay type: cell-based
[2] = system: rat skeletal muscle cell line, L6; assay: cells; assay type: cell-based
[3] = system: Trypanosoma brucei brucei 427 cells; assay: T. brucei culture and assay (PrestoBlue); assay type: cell-based
[4] = system: Trypanosoma cruzi Tulahuen trypomastigotes; assay: T. cruzi extracellular assay (CellTiter Glo); assay type: cell-based; settings: for IC50: Trypanosoma cruzi, TULAHUEN
[5] = system: Trypanosoma cruzi Tulahuen cells expressing beta-galactosidase; assay: T. cruzi intracellular assay (beta-galactosidase, L6 host cells); settings: for IC50: Trypanosoma cruzi, TULAHUEN; for Selectivity L6/TC-I: Table 3A
[6] = system: C. albicans (ATCC strain 90028); assay: Antifungal microdilution broth assay (PrestoBlue), C. albicans; assay type: cell-based, Candida albicans; settings: Candida albicans, ATCC90028, Table 4B; C. albicans; 100 μM; value ± spread; read-out: Percent Inhibition (at 100 μM)
Procedure: Sigma-Aldrich) was used as the base medium for testing. […] solution of morpholinepropanesulfonic acid (MOPS; Sigma-Aldrich) was added to the RPMI to a final concentration of 0.165 M for buffering (RPMI-MOPS). This medium was adjusted to a pH of 7.0 with 10 M NaOH and filter sterilized. C. albicans (ATCC strain 90028), C. [NT] strain 66032), and C. tropicalis (ATCC strain 750) were cultured on potato dextrose agar (Sigma-Aldrich) plates, and incubated at 35° C. for 24 hours. For antifungal testing, overnight colonies were adjusted to 1.5×10^3 cells/mL, hereafter referred to as the test inoculum. PrestoBlue® (Life Technologies, Invitrogen, Carlsbad, Calif.), a resazurin-based cell viability reagent that, in metabolically active cells, is reduced from blue, non-fluorescent resazurin, to red, fluorescent resorufin, was used to assess inhibition of yeast growth by the aurones. […] Following addition of aurone, plates were then incubated for 24 hours at 35° C. PrestoBlue was added to a final concentration of 10% in each well and fluorescence read at 560 nm excitation and 590 nm emission, per manufacturer instructions, using a SpectraMax M2e spectrophotometer (Molecular Devices, LLC, Sunnyvale, Calif.). To optimize the PrestoBlue reduction time, RFUs were collected at 15 minute intervals for 4 hours using a reference antifungal. […] IC50 determination was calculated using GraphPad Prism version 7.01 for Windows (GraphPad Software, Inc., La Jolla, Calif.) from the RFUs at dilution points. Calculations were made with a nonlinear regression after transforming the molar concentrations of the aurones into the logarithmic form. Graphing was accomplished utilizing the same program following a four parameter curve fitting sigmoidal plot of the data. All aurones and controls were tested in triplicate and all testing was repeated in at least three independent experiments.

[7] = Leishmania amazonensis, read-out: IC50 L. amaz.
[8] = Rattus norvegicus, Table 1, read-out: IC50 Toxicity (L6)
[9] = Trypanosoma brucei, Table 1, mean of 2(+) independent trials, read-out: IC50 T. brucei
[10] = Table 1, ^b extracellular T. cruzi assay, read-out: IC50 T. cruzi
[11] = read-out: IC50 T. cruzi, Table 1, intracellular assay, mean of 2(+) trials (^c one trial)
[12] = read-out: IC50 T. cruzi, Table 2, intracellular assay, mean of 2(+) independent trials
[13] = Table 2, extracellular assay, read-out: IC50 T. cruzi (footnote b: Extracellular T. cruzi assay)
[14] = Table 2, L6 IC50 / L. amazonensis IC50
[15] = Table 2, L6 mammalian cells, read-out: IC50 Toxicity (L6)
[16] = Table 2, L6 IC50 / T. brucei IC50
[17] = read-out: IC50 TC-I, Table 3A, weighted means of two or more independent trials
[18] = Rattus norvegicus, Table 3A, weighted means of two or more independent trials, read-out: IC50 L6
[19] = Table 2, mean of 2(+) independent trials, read-out: IC50 T. brucei
[20] = Table 1, intracellular T. cruzi IC50
[21] = estimated from highest L6 dose tested where no L6 IC50
[22] = Table 3B, estimated from highest L6 dose tested where no L6 IC50
[23] = read-out: IC50 TC-I, Table 3B, weighted means of two or more independent trials
[24] = Rattus norvegicus, Table 3B, weighted means of two or more independent trials, read-out: IC50 L6

SMILES	IC50 [1, 7]	Selectivity L6/La ([1]; Table 1)	IC50 [2, 8]	IC50 [3, 9]	melting point	IC50 [4, 10]	IC50 [5, 11]	IC50 [5, 12]	IC50 [4, 13]	other results
Cc1ccc2c(c1)C(=O)/C(=C/c1ccc(Br)cc1)O2 [Aurone 4002, (Z)-2-(4-bromobenzylidene)-5-methylbenzofuran-3(2H)-one]	19.7 µM	>5.07	> 100 µM	42.8 µM	171 to 175 °C	> 50 µM	–	–	–	Selectivity L6/Tb ([3]; Table 1): >2.34
O=C1/C(=C/c2ccccc2O)Oc2ccccc21 [Aurone 9088, (Z)-2-(2-hydroxybenzylidene)benzofuran-3(2H)-one]	9.54 µM	–	> 100 µM	> 50 µM	215 to 216 °C	–	18.4 µM	18.4 µM	–	inhibition at 100 µM [6]: 1 ± 1.1%
Cc1cccc(/C=C2\Oc3ccccc3C2=O)c1 [Aurone 9064, (Z)-2-(3-methylbenzylidene)benzofuran-3(2H)-one]	4.4 µM	–	79.9 µM	32.6 µM	74 to 75 °C	18.4 µM	–	–	18.4 µM	–
N#Cc1ccc(/C=C2\Oc3ccc(Br)cc3C2=O)cc1 [Aurone 6003, (Z)-4-((5-bromo-3-oxobenzofuran-2(3H)-ylidene)methyl)benzonitrile]	1.22 µM	>81.97	> 100 µM	17.1 µM	–	> 50 µM	–	–	> 50 µM	Selectivity L6/La [1, 14]: >81.97; IC50 [2, 15]: > 100 µM; Selectivity L6/Tb ([3]; Table 1): >5.85; Selectivity L6/Tb [3, 16]: >5.85
O=C1/C(=C/c2cc(Br)cc(Br)c2O)Oc2ccccc21 [Aurone 3012, (Z)-2-(3,5-dibromo-2-hydroxybenzylidene)benzofuran-3(2H)-one]	1.21 µM	>82.64	> 100 µM	> 50 µM	–	40.1 µM	–	–	40.1 µM	Selectivity L6/La [1, 14]: >82.64; IC50 [5, 17]: > 50 µM; IC50 [2, 18]: > 100 µM; IC50 [2, 15]: > 100 µM; IC50 [3, 19]: > 50 µM; Selectivity L6/Tc ([4]; Table 1, T. cruzi IC50 from extracellular assay (^b)): >2.49; Selectivity L6/Tc (T. cruzi value from extracellular assay) ([4]; Table 2, L6 IC50 / T. cruzi IC50 (extracellular assay)): >2.49
O=C1/C(=C/c2cccc(Cl)c2)Oc2ccccc21 [Aurone 9026, (Z)-2-(3-chlorobenzylidene)benzofuran-3(2H)-one]	12.6 µM	6.15	77.5 µM	27.4 µM	86 to 89 °C	–	11 µM	–	–	Selectivity L6/Tc [5, 20]: 7.07; Selectivity L6/TC-I [5, 21]: 7.07; IC50 [5, 17]: 11 µM; IC50 [2, 18]: 77.5 µM; Selectivity L6/Tb ([3]; Table 1): 2.83; Selectivity L6/Tb ([3]; Table 3A, estimated from highest L6 dose tested where no L6 IC50): 2.83
O=C1/C(=C/c2ccc(CO)o2)Sc2ccccc21 [TA2]	< 1 µM	–	> 200 µM	11.4 µM	–	> 50 µM	–	–	> 50 µM	–
O=C1/C(=C/c2ccoc2)Oc2ccccc21 [Aurone 3005, (Z)-2-(furan-3-ylmethylene)benzofuran-3(2H)-one]	42.7 µM	>2.34	> 100 µM	41.9 µM	111 to 112 °C	–	7.47 µM	7.47 µM	–	Selectivity L6/La [1, 14]: >2.34; Selectivity L6/Tc [5, 20]: >13.39; Selectivity L6/Tc ([5]; Table 2, L6 IC50 / T. cruzi IC50 (intracellular assay)): >13.39; Selectivity L6/Tc-I [5, 22]: >13.39; IC50 [5, 23]: 7.47 µM; IC50 [2, 24]: > 100 µM; IC50 [2, 15]: > 100 µM; Selectivity L6/Tb ([3]; Table 1): >2.39; Selectivity L6/Tb [3, 16]: >2.39; Selectivity L6/Tb [3, 22]: >2.39
O=C1/C(=C/c2cccnc2)Oc2ccccc21 [Aurone 9253, (Z)-2-(pyridin-3-ylmethylene)benzofuran-3(2H)-one]	7.38 µM	–	< 100 µM	> 50 µM	122 to 123 °C	–	17.8 µM	17.8 µM	–	IC50 [5, 23]: 17.8 µM; IC50 [2, 24]: > 100 µM; IC50 ([3]; Trypanosoma brucei, read-out: IC50 TB): > 50 µM
N#Cc1cccc(/C=C2\Oc3ccccc3C2=O)c1 [Aurone 9070, (Z)-3-((3-oxobenzofuran-2(3H)-ylidene)methyl)benzonitrile]	< 1 µM	–	> 200 µM	34.7 µM	175 to 177 °C	–	16.7 µM	16.7 µM	–	–
Cc1ccc(/C=C2\Oc3ccc(Br)cc3C2=O)cc1 [Aurone 6000, (Z)-5-bromo-2-(4-methylbenzylidene)benzofuran-3(2H)-one]	8.43 µM	–	> 100 µM	> 50 µM	115 to 120 °C	–	> 50 µM	> 50 µM	–	–
Cc1ccccc1/C=C1\Oc2ccccc2C1=O [Aurone 9057, (Z)-2-(2-methylbenzylidene)benzofuran-3(2H)-one]	< 1 µM	–	99.6 µM	24.4 µM	89 to 93 °C	–	26.3 µM	26.3 µM	–	–
O=C1/C(=C/c2cccc(C(F)(F)F)c2)Oc2ccccc21 [Aurone 9085, (Z)-2-(3-(trifluoromethyl)benzylidene)benzofuran-3(2H)-one]	4.43 µM	–	73.4 µM	> 50 µM	128 to 133 °C	–	11.1 µM	11.1 µM	–	–
O=C1/C(=C/c2ccccn2)Oc2ccccc21 [Aurone 9051, (Z)-2-(pyridin-2-ylmethylene)benzofuran-3(2H)-one]	6.26 µM	–	79.6 µM	23.2 µM	119 to 121 °C	–	19.4 µM	19.4 µM	–	IC50 [5, 23]: 19.4 µM; IC50 [2, 24]: 79.6 µM; IC50 ([3]; Trypanosoma brucei, read-out: T. brucei IC50 dose): 23.2 µM
N#Cc1ccc(/C=C2\Oc3cc(O)ccc3C2=O)cc1 [Aurone 9076, (Z)-4-((6-hydroxy-3-oxobenzofuran-2(3H)-ylidene)methyl)benzonitrile]	2.44 µM	–	> 100 µM	> 50 µM	112 to 115 °C	–	26.3 µM	26.3 µM	–	–
CC(=O)N1/C(=C\c2ccc(CO)o2)C(=O)c2ccccc21 [AA4A]	< 1 µM	–	87 µM	34.7 µM	–	> 50 µM	–	–	> 50 µM	IC50 ([1]; Leishmania amazonensis, read-out: IC50 L. amaz. (footnote c: value obtained from one trial)): < 1 µM
CC(C)(C)c1ccc(/C=C2\Oc3ccccc3C2=O)cc1 [Aurone 3008, (Z)-2-(4-(tert-butyl)benzylidene)benzofuran-3(2H)-one]	3.57 µM	27.81	99.3 µM	> 50 µM	87 to 90 °C	–	> 50 µM	> 50 µM	–	Selectivity L6/La [1, 14]: 27.81; Selectivity L6/TC-I [5, 21]: 7.94; IC50 [5, 17]: 12.5 µM; IC50 [2, 18]: 99.3 µM; IC50 [3, 19]: > 50 µM
N=C1/C(=C/c2ccccn2)Oc2ccc(F)cc21 [Aurone 9312, (Z)-5-fluoro-2-(pyridin-2-ylmethylene)benzofuran-3(2H)-imine]	< 1 µM	>200	> 200 µM	> 50 µM	–	> 50 µM	–	–	> 50 µM	Selectivity L6/La [1, 14]: >200; IC50 ([1]; read-out: IC50 L. amaz., Table 2, mean of 2(+) independent trials): < 1 µM; IC50 [2, 15]: > 200 µM; IC50 [3, 19]: > 50 µM
